This is an account of results in ChEMBL document CHEMBL1156399, “A quinolone alkaloid with antioxidant activity from the aleurone layer of anthocyanin-pigmented rice” (J Nat Prod, 2001).

The test system of this experiment is Radical scavenging activity. The experiment is described as follows: Antioxidant activity assessed as DPPH radical scavenging activity. The format is functional.

Molecules are shown by their SMILES. In brackets after ≈: the same amount, converted by molar mass.

For `COC(=O)c1cc(=O)[nH]c2ccc(O)cc12`, the IC50 came out at 36.4 µg/mL (≈ 166 µM). For `O=C1O[C@H]([C@@H](O)CO)C(O)=C1O` [ASCORBIC ACID], the IC50 is 21.8 µg/mL (≈ 124 µM). Next, `COc1ccc(O)c(C(C)(C)C)c1.COc1ccc(O)cc1C(C)(C)C` [BUTYLATED HYDROXYANISOLE]: 20.6 µg/mL.
